pIC50: −log10 of the molar value.
How the values were obtained:
[1] = Antiproliferative activity against human MKN45 cells at 20 uM after 48 hrs by MTT assay relative to control; type: functional; conditions: MKN-45, 48 h, read-out: GI
[2] = Antiproliferative activity against human NB4 cells at 5 uM after 48 hrs by MTT assay relative to control; type: functional; conditions: NB-4, 48 h, read-out: GI
[3] = Cytotoxicity against primary goat fetal fibroblast assessed as decrease in cell viability after 48 hrs by MTT assay; type: toxicity; conditions: goat (Capra hircus), primary goat fetal fibroblasts
[4] = Cytotoxicity against primary porcine fetal kidney cells assessed as decrease in cell viability after 48 hrs by MTT assay; type: toxicity, cell-based; conditions: pig (Sus scrofa)
[5] = Cytotoxicity against human NB4 cells assessed as decrease in cell viability after 48 hrs by MTT assay; type: functional, cell-based; conditions: NB-4, 48 h
[6] = Cytotoxicity against human MKN45 cells assessed as decrease in cell viability after 48 hrs by MTT assay; type: functional, cell-based; conditions: MKN-45, 48 h

Row | Compound | inhibition of growth at 20 µM [1] | inhibition of growth at 5 µM [2] | IC50 at 48 h [3] | IC50 at 48 h [4] | pIC50 [5] | pIC50 [6]
1 | COc1cccc2c1C=[N+](c1cccc(I)c1)CC2 | 73% | 45.3% | 2.67 µM | 4.57 µM | 5.78 | 4.94
2 | COc1cccc2c1C=[N+](c1cccc([N+](=O)[O-])c1)CC2 | 67.1% | 40.3% |  |  | 5.55 | 4.86
3 | COc1cccc2c1C=[N+](c1ccc(Br)cc1)CC2 | 96.8% | 59.4% |  |  | 5.21 | 4.96
4 | COc1cccc2c1C=[N+](c1ccc(Cl)cc1Cl)CC2 | 88.2% | 54.7% |  |  | 5.70 | 5.45
5 | COc1cccc2c1C=[N+](c1ccc(I)cc1F)CC2 | 89% | 54.8% |  |  | 5.44 | 5.10
6 | COc1cccc2c1C=[N+](c1cccc(F)c1)CC2 | 80.6% | 37.6% |  |  | 4.73 | 4.95
7 | COc1ccc2c(c[n+](C)c3c4cc5c(cc4ccc23)OCO5)c1OC [CHELERYTHRINE] | 92.7% | 88.4% |  |  | 5.83 | 4.90
8 | Ic1ccccc1[N+]1=Cc2c(cccc2OCc2ccccc2)CC1 | 91.5% | 78.2% |  |  | 5.58 | 5.70
9 | COc1cccc2c1C=[N+](c1ccccc1C#N)CC2 | 51.1% | 30.4% |  |  | 5.16 | 5.34
10 | COc1cccc2c1C=[N+](c1ccc(I)cc1)CC2 | 71.1% | 51.8% |  |  | 5.07 | 5.37
11 | COc1cccc2c1C=[N+](c1ccc(Br)cc1F)CC2 | 69.2% | 56.9% |  |  | 5.44 | 5.16
12 | COc1cccc2c1C=[N+](c1ccccc1Cl)CC2 | 84% | 47.6% |  |  | 5.03 | 5.14
13 | COc1cccc2c1C=[N+](c1cccc(Br)c1)CC2 | 87.4% | 46.6% |  |  | 5.34 | 4.98
14 | COc1cccc2c1C=[N+](c1cccc(C#N)c1)CC2 | 83.4% | 39.6% |  |  | 5.44 | 5.15

From ChEMBL document CHEMBL3870340, “Cytotoxic activity, apoptosis induction and structure-activity relationship of 8-OR-2-aryl-3,4-dihydroisoquinolin-2-ium salts as promising anticancer agents” (Bioorg Med Chem Lett, 2017)
